According to patent US7964638B2, “Skin cosmetic and wrinkle-reducing agent” (Kao Corporation, priority 2005, dated 2011):

Experiment: Normal safety test

With `O[C@@H]1CO[C@H]2[C@@H]1OC[C@@H]2O` [isosorbide] the Normal safety test was “no problem occurred”.
